Conditions: for log10 biotransformation half-life (days) / log10 BCF: fish

O=[N+]([O-])c1cc(N(CCO)CCO)ccc1NCCO
melting point: 95.5 °C

O=C(O)c1cc[n+]([O-])cc1
melting point: 270 °C

CCCCOc1ccc(C(=O)O)cc1
melting point: 148 °C

Cc1ccc(-c2nc3ccc(C)cn3c2CC(=O)N(C)C)cc1
melting point: 196 °C

CCOC(=O)CCC(C)=O
boiling point: 206 °C | log10 vapour pressure (mmHg): -0.682

CC(C)c1ccc(Cl)cc1
boiling point: 198 °C | melting point: -12.3 °C

C=C(CCCC)CCCCCCCC
log10 biotransformation half-life (days): 0.88

CC1=NOC(=O)/C1=N\Nc1ccccc1Cl
melting point: 168 °C

CC(=O)Oc1cccc(C)c1
boiling point: 212 °C | melting point: 12 °C

Clc1cc2c(Cl)c(Cl)c(Cl)c(Cl)c2cc1Cl
log10 Koa: 9.58 | log10 vapour pressure (mmHg): -6.46

CCOC(=O)CC(=O)CC
boiling point: 191 °C

Brc1ccc(Oc2cc(Br)c(Br)c(Br)c2)cc1Br
log10 BCF: 6.43

Oc1c(I)cc(I)c2cccnc12
melting point: 210 °C

O=C(Nc1ccccc1)c1cc2ccccc2cc1O
melting point: 248 °C | ready biodegradability: not readily biodegradable | log10 BCF: 0.81

CCN(CC)c1ccc(N=O)cc1
melting point: 87.5 °C

COP(=S)(OC)Oc1c(Cl)cc(C)cc1Cl
log10 Koc (L/kg): 3.7 | log10 vapour pressure (mmHg): -3.37 | melting point: 79 °C | log10 BCF: 2.86 | log10 biotransformation half-life (days): -0.11

Nc1ccc(CCc2ccc(N)cc2)cc1
melting point: 137 °C

Cc1ccc(NC(=S)Nc2ccc(C)cc2)cc1
melting point: 183 °C

CNC(=O)N(C)c1nnc(C(C)(C)C)s1
log10 Henry constant (atm·m³/mol): -9.92 | log10 Koc (L/kg): 1.83 | log10 vapour pressure (mmHg): -5.7

c1ccc2c(c1)ccc1cc3c(ccc4ccccc43)cc12
boiling point: 524 °C | log10 Koc (L/kg): 6.22 | log10 biodegradation half-life (days): 2.62 | log10 vapour pressure (mmHg): -9.02 | melting point: 270 °C | ready biodegradability: not readily biodegradable | log10 biotransformation half-life (days): 0.21

C#C[C@]1(O)CC[C@H]2[C@@H]3[C@H](C)CC4=C(CCC(=O)C4)[C@H]3CC[C@@]21C
melting point: 167 °C

C#CCl
boiling point: -30 °C | melting point: -126 °C

O=S1(=O)CCCC1
boiling point: 285 °C | melting point: 27.6 °C | ready biodegradability: not readily biodegradable | log10 BCF: 0.85

CC(=O)c1ccc(C(C)=O)cc1
melting point: 112 °C

CCC1C=CCCC1 (centres undefined)
boiling point: 134 °C

CCN(CC)C(=O)c1ccc(O)c(OC)c1
melting point: 95 °C

O=Cc1cccc(Br)c1
boiling point: 234 °C

N=C(N)NCCC[C@H](N)C(=O)O
ready biodegradability: readily biodegradable

CCC1(CC)C(=O)CCNC1=O
melting point: 104 °C

C=CCCCCCCCCCC
boiling point: 214 °C | log10 vapour pressure (mmHg): -0.797 | melting point: -35.2 °C | log10 biotransformation half-life (days): 0.83

CC(=O)Oc1ccc(C(=O)O)cc1
melting point: 192 °C

C=CC(C)(C)C(=O)O
boiling point: 185 °C | melting point: -6 °C

OCC(Br)(Br)Br
melting point: 81 °C

Nc1c(C(=O)O)ccc2c1C(=O)c1ccccc1C2=O
melting point: 296 °C

CC(C)C[C@@H](NC(=O)[C@@H](O)[C@H](N)Cc1ccccc1)C(=O)O
melting point: 234 °C

O=C(O)CC1CCCCC1
boiling point: 245 °C | melting point: 33 °C

Nc1ccc(S(=O)(=O)NCc2ccccc2)cc1
melting point: 171 °C

CCON=O
boiling point: 18 °C

O=c1n(-c2ccccc2)c(=O)n(-c2ccccc2)c(=O)n1-c1ccccc1
melting point: 285 °C

CCCCC(CC)COC(=O)c1nc(Cl)c(Cl)c(N)c1Cl (centres undefined)
log10 biotransformation half-life (days): 0.45

CCOc1ccc2cc(O)c(O)cc2c1
melting point: 132 °C

CCCCOCCOCC(C)O (centres undefined)
boiling point: 230 °C

CCCCCOC(=O)CC
boiling point: 169 °C | log10 vapour pressure (mmHg): 0.556 | melting point: -73.1 °C

Cc1ccc(Br)c(C)c1
boiling point: 205 °C | melting point: -17 °C

CCOC(=O)c1ccc(OC)cc1
boiling point: 270 °C | melting point: 7.5 °C

COC(=O)C1=C(C)NC(C)=C(C(=O)OC)C1c1ccccc1[N+](=O)[O-]
melting point: 173 °C

CCN(CC)CC(=O)OCC(=O)[C@@]1(O)CC[C@H]2[C@@H]3CCC4=CC(=O)CC[C@]4(C)[C@H]3[C@@H](O)C[C@@]21C
melting point: 162 °C

CCN(C#N)CC
boiling point: 188 °C | melting point: -80.6 °C

Nc1ccc(N=Nc2ccccc2)c(N)n1
log10 Koc (L/kg): 2.32 | melting point: 139 °C

O=C1c2ccccc2C(=O)c2c(O)c(O)cc(O)c21
melting point: 259 °C

N#Cc1ccc(Cl)cc1N
melting point: 161 °C

CC1(C)CCCCC1=O
boiling point: 172 °C | melting point: -20.5 °C

CC(C)Oc1ccc(Nc2ccccc2)cc1
melting point: 79 °C

N#Cc1cc(I)c(O)c(I)c1
melting point: 212 °C | ready biodegradability: not readily biodegradable

C=C(C)CCCCC
boiling point: 119 °C | log10 vapour pressure (mmHg): 1.3 | melting point: -90 °C

COC(=O)Nc1nc2ccccc2[nH]1
log10 Koc (L/kg): 2.35 | log10 vapour pressure (mmHg): -9.12 | ready biodegradability: not readily biodegradable | log10 BCF: 0.4

CC(F)(Cl)Cl
boiling point: 32 °C | log10 vapour pressure (mmHg): 2.78 | melting point: -104 °C

Clc1ccc2c(Cl)ccnc2c1
melting point: 93 °C

CCCCCC(=O)Cl
boiling point: 153 °C | melting point: -87 °C

Cc1ccn(-c2ccccc2)n1
boiling point: 255 °C | melting point: 37 °C

C=CC1(C)CC(OC(=O)CO)C2(C)C(C)CCC3(CCC(=O)C32)C(C)C1O (centres undefined)
melting point: 170 °C

C/C=C/C=C/C=O
boiling point: 174 °C | log10 Henry constant (atm·m³/mol): -5.01

CCCc1ccccc1O
boiling point: 220 °C | log10 vapour pressure (mmHg): -1.05 | melting point: 7 °C

CCC(CC)CO
boiling point: 147 °C | log10 vapour pressure (mmHg): 0.185

O=[N+]([O-])c1ccc(/C=C/c2cccc(CO)n2)o1
melting point: 170 °C

CCCC(CC(OCC)OCC)OCC (centres undefined)
melting point: -100 °C

C1=COCC1
boiling point: 54.5 °C | log10 vapour pressure (mmHg): 2.4

N=C(N)NOCC[C@H](N)C(=O)O
melting point: 184 °C

CCC(C)C(CC)CC (centres undefined)
boiling point: 140 °C

Cc1ncc(COP(=O)(O)O)c(C=O)c1O
melting point: 255 °C

CC(C)C(=O)C(=O)O
boiling point: 170 °C | melting point: 31.5 °C

CCN(CC)C(=O)n1cnc(S(=O)(=O)c2c(C)cc(C)cc2C)n1
log10 vapour pressure (mmHg): -10.6 | melting point: 115 °C

COc1c(C(C)C)oc2cc3oc(=O)ccc3cc12
melting point: 85 °C

Cc1ccc(C)[nH]1
boiling point: 171 °C | log10 vapour pressure (mmHg): -0.0942 | melting point: 7.7 °C

C=C(C)C=CC(=C)C
boiling point: 146 °C | melting point: -9 °C

CC(C)[C@@H]1CC[C@@H](C)[C@H](O)C1
boiling point: 218 °C

OC1CCCC1
boiling point: 140 °C | log10 vapour pressure (mmHg): 0.396 | melting point: -19 °C

CCNC(C)C
boiling point: 69.6 °C

C#CCC1(OC(N)=O)CCCCC1
melting point: 99 °C

Brc1ccc(Br)c2ccccc12
boiling point: 310 °C | melting point: 83 °C

OCc1ccc(Cl)c(Cl)c1
boiling point: 150 °C | melting point: 36 °C | log10 BCF: 0.54

C=CC(=O)OCCCCCCCC
log10 vapour pressure (mmHg): -0.994 | ready biodegradability: readily biodegradable

OCC1CCC(CO)O1 (centres undefined)
boiling point: 265 °C

CCOc1ccc(I)cc1
boiling point: 250 °C | melting point: 29 °C

CCC(C)(C)C(C)C(C)C (centres undefined)
boiling point: 162 °C

O=C(c1ccc(O)c(O)c1)c1c(O)cc(O)cc1O
melting point: 222 °C

Cc1ccc(C)c(C)n1
boiling point: 172 °C

O=[N+]([O-])c1c(O)c(Cl)cc(Cl)c1Cl
melting point: 92.5 °C

CC1(C)CCC(C)(C)O1
boiling point: 112 °C

C=COCCCCCC
boiling point: 143 °C

CCSCC(=O)O
melting point: -8.5 °C

NNc1nncc2ccccc12
melting point: 172 °C

CCCCCCCCCCCCCCCCCCOC(=O)CCSCCC(=O)OCCCCCCCCCCCCCCCCCC
melting point: 66 °C | ready biodegradability: readily biodegradable

OCC(O)CI (centres undefined)
melting point: 48.5 °C

CN1c2ccccc2Sc2ccc(CC(=O)O)cc21
melting point: 144 °C

CCc1cc(C)ccc1C
boiling point: 187 °C | log10 biodegradation half-life (days): 0.477 | log10 vapour pressure (mmHg): -0.0272 | melting point: -53.7 °C

FC(F)CBr
boiling point: 57.3 °C | melting point: -75 °C

CCN1CCCC1CNC(=O)c1cc(S(=O)(=O)CC)ccc1OC (centres undefined)
melting point: 182 °C

O=C1CCC[C@@H]2[C@H]3CCCN4CCC[C@@H](CN12)[C@@H]34 (racemic)
melting point: 76 °C

O=[N+]([O-])C(Br)(Br)Br
melting point: 10 °C

CC(=O)N(C)C
ready biodegradability: readily biodegradable

Cc1ccc2cccc(C)c2c1
boiling point: 263 °C | melting point: -13.9 °C

S=P(N1CC1)(N1CC1)N1CC1
melting point: 51.5 °C

CC[C@H]1C[N@@]2CC[C@H]1C[C@H]2[C@H](O)c1ccnc2ccc(OCCC(C)C)cc12
melting point: 152 °C

CCOC(C(=O)c1ccccc1)c1ccccc1 (centres undefined)
melting point: 62 °C

CCCCOCCCC
boiling point: 141 °C | log10 Henry constant (atm·m³/mol): -2.22 | log10 Koa: 3.89 | log10 vapour pressure (mmHg): 0.779 | ready biodegradability: not readily biodegradable | log10 BCF: 1.86 | log10 biotransformation half-life (days): -0.25

C[C@@H]1O[C@@H](O[C@H]2C[C@@H](O)[C@]3(CO)[C@H]4[C@H](O)C[C@]5(C)[C@@H](C6=CC(=O)OC6)CC[C@]5(O)[C@@H]4CC[C@]3(O)C2)[C@H](O)[C@H](O)[C@H]1O
melting point: 200 °C

CCOC(C)CC (centres undefined)
boiling point: 81 °C

Cc1cc(NC(N)=O)ccc1Br
log10 Koc (L/kg): 2.37

CNC(=O)N(C)c1nnc(C(F)(F)F)s1
melting point: 136 °C

COC(=O)CC(=O)C(C)(C)C
ready biodegradability: not readily biodegradable

c1ccc2sc(SN3CCOCC3)nc2c1
log10 vapour pressure (mmHg): -5.48 | melting point: 85 °C | ready biodegradability: not readily biodegradable

OC[C@H]1OC(O)[C@H](O)[C@@H](O)[C@@H]1O (some centres undefined)
melting point: 133 °C

CC(C)CC(C)CC(C)C
boiling point: 148 °C

Cc1cccc(C(C)(C)C)c1
boiling point: 189 °C | melting point: -41.4 °C

CCC(C)C#N (centres undefined)
boiling point: 125 °C

CC[N+](C)(C)CCOC(=O)C(O)(c1ccccc1)c1ccccc1.[Cl-]
melting point: 213 °C

FC(Cl)C(F)(F)F (centres undefined)
boiling point: -12 °C | log10 vapour pressure (mmHg): 3.46

CCCCCCCOCCCCCCC
boiling point: 258 °C

COc1c(OC)c2occc2c2oc(=O)ccc12
melting point: 119 °C

O=C1C(O)=C(C2CCCCC2)C(=O)c2ccccc21
melting point: 136 °C

CC(=O)NC(CCC(N)=O)C(=O)O (centres undefined)
melting point: 197 °C

Cc1ccc(NC2=NCCN2)c(Cl)c1
melting point: 149 °C

Oc1c(I)cc(I)cc1I
melting point: 160 °C

Cc1c(Cl)c(C)c(Cl)c(Cl)c1Cl
melting point: 223 °C

CC(C)CCC[C@@H](C)[C@H]1CC[C@@H]2[C@@H]3CC[C@H]4CCCC[C@]4(C)[C@H]3CC[C@@]21C
melting point: 76 °C

CC1=NNC(=O)C1
melting point: 221 °C

Reference: the OPERA property sets (Mansouri et al. 2018)
